One assay deals with T1, full-length yPolη (Saccharomyces cerevisiae, UniProt Q04049).
T1 construct: gene RAD30; full-length, residues 1-632, expressed and purified from yeast
T1 sequence (Q04049 1-632): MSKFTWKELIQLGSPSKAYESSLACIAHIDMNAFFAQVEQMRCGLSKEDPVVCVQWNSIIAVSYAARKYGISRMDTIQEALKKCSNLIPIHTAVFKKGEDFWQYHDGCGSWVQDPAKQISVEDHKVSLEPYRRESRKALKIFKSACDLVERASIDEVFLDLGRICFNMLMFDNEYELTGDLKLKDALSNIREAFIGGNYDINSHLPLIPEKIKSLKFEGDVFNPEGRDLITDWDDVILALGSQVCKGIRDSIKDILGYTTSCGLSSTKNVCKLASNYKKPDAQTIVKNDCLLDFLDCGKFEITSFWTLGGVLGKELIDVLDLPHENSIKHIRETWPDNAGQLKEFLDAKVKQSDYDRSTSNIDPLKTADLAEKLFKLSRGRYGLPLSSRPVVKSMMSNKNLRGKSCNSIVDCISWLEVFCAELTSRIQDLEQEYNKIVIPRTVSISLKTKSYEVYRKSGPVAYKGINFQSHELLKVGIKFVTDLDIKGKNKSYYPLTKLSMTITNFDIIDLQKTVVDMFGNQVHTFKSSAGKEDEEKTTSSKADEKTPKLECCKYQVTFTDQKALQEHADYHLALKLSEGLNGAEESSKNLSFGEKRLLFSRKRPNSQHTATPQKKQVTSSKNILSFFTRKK
The assay can be described thus: pre-steady-state single-turnover nucleotide incorporation, rapid chemical quench. Format: biochemical. The following applies: 5 mM MgCl2, pH 7.5, 23°C. From the text:
pre-steady-state single-turnover nucleotide incorporation, rapid chemical quench on full-length yPolη

Another assay concerns the target T2, truncated yPolη (Saccharomyces cerevisiae, UniProt Q04049).
T2 construct: gene RAD30; catalytic core (polymerase domain) 1-513, lacks C-terminal residues 514-632; N-terminal tag MGSSH6SSGLVPRGSH
T2 sequence (Q04049 1-513): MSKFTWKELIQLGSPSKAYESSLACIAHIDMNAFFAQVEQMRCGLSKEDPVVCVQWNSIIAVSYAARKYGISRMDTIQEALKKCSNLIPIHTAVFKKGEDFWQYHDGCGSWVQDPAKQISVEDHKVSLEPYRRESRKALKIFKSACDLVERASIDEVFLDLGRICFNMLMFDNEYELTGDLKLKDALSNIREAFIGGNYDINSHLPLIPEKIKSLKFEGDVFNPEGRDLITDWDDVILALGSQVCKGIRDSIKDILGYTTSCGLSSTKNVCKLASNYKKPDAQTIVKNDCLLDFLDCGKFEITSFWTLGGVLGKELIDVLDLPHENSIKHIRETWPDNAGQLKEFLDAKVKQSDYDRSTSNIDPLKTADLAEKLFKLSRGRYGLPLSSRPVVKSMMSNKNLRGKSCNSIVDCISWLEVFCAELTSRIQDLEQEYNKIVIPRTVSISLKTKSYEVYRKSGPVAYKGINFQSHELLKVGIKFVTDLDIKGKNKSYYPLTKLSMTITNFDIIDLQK
Described as above. In kind it is biochemical. The following applies: 5 mM MgCl2, pH 7.5, 23°C.

[1] abbreviates: mismatched dNTP opposite template dA (D-1 21/41-mer DNA).
Where [2] appears, read: correct dNTP opposite template dA (D-1 21/41-mer DNA).

As a reminder, the Kd is the free concentration of one partner at which half of the binding sites on the other are occupied at equilibrium, for simple one-to-one binding. Read a low Kd as tighter binding. Turning to `Nc1ncnc2c1ncn2[C@H]1C[C@H](O)[C@@H](COP(=O)(O)OP(=O)(O)OP(=O)(O)O)O1` [dATP], the values for the Kd at full-length yPolη (setting [1]) and on truncated yPolη (correct dNTP opposite template dT (D-7 21/41-mer DNA)) were 156 ± 7 µM and 17 ± 3 µM, respectively.

As to `Nc1ccn([C@H]2C[C@H](O)[C@@H](COP(=O)(O)OP(=O)(O)OP(=O)(O)O)O2)c(=O)n1` [dCTP], the equilibrium dissociation constant (Kd) was determined as 70 ± 10 µM on full-length yPolη (setting [1]) and 11.2 ± 0.8 µM on truncated yPolη (correct dNTP opposite template dG (D-6 21/41-mer DNA)).

`Nc1nc2c(ncn2[C@H]2C[C@H](O)[C@@H](COP(=O)(O)OP(=O)(O)OP(=O)(O)O)O2)c(=O)[nH]1` [dGTP]: the figures for the Kd on full-length yPolη (setting [1]) and on truncated yPolη (correct dNTP opposite template dC (D-8 21/41-mer DNA)) were 170 ± 40 µM and 6.8 ± 0.4 µM, respectively.

Turning to `Cc1cn([C@H]2C[C@H](O)[C@@H](COP(=O)(O)OP(=O)(O)OP(=O)(O)O)O2)c(=O)[nH]c1=O` [dTTP], the figures for the equilibrium dissociation constant (Kd) on full-length yPolη (setting [2]) and on truncated yPolη (setting [2]) were 40 ± 10 µM and 15 ± 2 µM, respectively.
